Reference: patent US20250049806A1, “PHARMACEUTICAL COMPOSITION FOR PROVIDING TREATMENT FOR OR PREVENTING ALPORT SYNDROME” (UBE Corporation, priority 2021, published 2025)

Experiment: Transcellular transport test using Caco2 cell
Type: in vitro ADME
Conditions: human, Caco-2, apical-to-basolateral (A-to-B), pH=7.4, 10 µM compound
Method: Caco2 cells (purchased from ATCC) were cultured in DMEM medium (Thermo Fisher Scientific, Inc., 11965) containing 10% FBS (Thermo Fisher Scientific, Inc., 10082) and 1% penicillin/streptomycin/amphotericin B (Thermo Fisher Scientific, Inc., 15240). A transcellular transport test was carried out in accordance with MultiScreen Caco2 Drug Transport Assembly in a 96-well system (Application Note AN1727EN, MultiScreen Caco-2 Assay System, Merck) by partially modifying it. The Caco2 cells were inoculated at a cell density of 4×10^4 cells/well onto a micropore polycarbonate insert of a 96-well plate (Merck, Millcell-96 culture insert plate 0.4 μm pore size, well membrane area=0.11 cm^2, PSHT004S5) and cultured for 20 to 22 days, and the resulting monolayer was used in the transcellular transport test. The medium of the inoculated cells was replaced with a fresh one every 3 to 4 days.
Apical-to-basolateral (A-to-B) transport in the Caco2 cell monolayer membrane was performed by using HBSS (Thermo Fisher Scientific, Inc., 14025) medium (pH=7.4) containing 20 mM HEPES (Thermo Fisher Scientific, Inc., 15630), and adding HEPES-containing HBSS medium containing 10 µM compound (a 10 mM solution of the compound in DMSO was added at a 1000-fold dilution; final DMSO concentration: 0.1%) at 75 μL/well to the apical side and HEPES-containing HBSS medium supplemented with no compound at 250 μL/well to the basolateral side, followed by culture at 37° C. for 90 minutes. After culture, a 100 μL aliquot was collected from the basolateral side, and the concentration of a permeated compound was measured by LC-MS/MS under measurement conditions mentioned later. Papp (apparent permeability; cm/sec) was calculated from the determined concentration. Papp was determined according to the expression given below by calculating the slope (dA/dt; nmol/sec) of a straight line drawn between two points 0 minutes and zero amount of the compound in a graph plotted with an assay time (90 min) on the abscissa against the amount of the compound in the solution on the permeated side on the ordinate. As for an assay concentration, the concentration in the compound in the HEPES-containing HBSS medium containing the added compound was measured by UV-HPLC under measurement conditions mentioned later.
C0: assay concentration, S: plate membrane area=0.11 cm^2
• LC: LC20 or LC30 HPLC system manufactured by Shimadzu Corp. • Column: Phenomenex Kinetex C18 (50 mm×2.1 mm, 2.6 μm) • Column temperature: 40° C. • Flow rate: 0.3 mL/min • Mobile phase A: 0.1% aqueous formic acid solution • Mobile phase B: 0.1% formic acid, 50% acetonitrile/methanol mixed solution • Gradient: 0-2 min; A/B=90/10 to 10/90, 2-3 min; A/B=10/90, 3-3.01 min; A/B=10/90 to 90/10 • MS: Q-Trap3200 manufactured by AB Sciex Pte. Ltd. • Ionization: ESI • Mode: Positive
• LC: LC20 or LC30 HPLC system manufactured by Shimadzu Corp. • Column: Phenomenex Kinetex C18 (100 mm×2.1 mm, 2.6 μm) • Column temperature: 40° C. • Flow rate: 0.25 mL/min • Mobile phase A: 0.1% aqueous formic acid solution • Mobile phase B: 0.1% formic acid, 50% acetonitrile/methanol mixed solution • Gradient: 0-3 min; A/B=90/10, 3-11 min; A/B=90/10 to 5/95, 11-15 min; A/B=5/95, 15-15.1 min; A/B=5/95 to 90/10 • UV detector: photodiode array detector
A: Papp>1×10^−6 (cm/sec), B: 1×10^−6 (cm/sec)≥Papp>5×10^−7 (cm/sec), C: 5×10^−7 (cm/sec)≥Papp>1×10^−7 (cm/sec), or D: Papp≤1×10^−7 (cm/sec).

Papp A→B at 90 min, 10 µM | SMILES
> 1 ×10⁻⁶ cm/s | O=C(O)C[C@H](NC(=O)CNC(=O)c1cc(NC2=NCC(F)CN2)c2cn[nH]c2c1)c1cccc(OC2CC2)c1 (stereo partly drawn) [40-(b), (3S)-3-(3-cyclopropoxyphenyl)-3-(2-(4-((5-fluoro-1,4,5,6-tetrahydropyrimidin-2-yl)amino)-1H-indazole-6-carboxamido)acetamido)propanoic acid]
> 1 ×10⁻⁶ cm/s | O=C(O)C[C@H](NC(=O)CNC(=O)c1cc(NC2=NCC(F)CN2)c2cn[nH]c2c1)c1cc(C(F)(F)F)ccc1Cl (stereo partly drawn) [12-(b), (3S)-3-(2-chloro-5-(trifluoromethyl)phenyl)-3-(2-(4-((5-fluoro-1,4,5,6-tetrahydropyrimidin-2-yl)amino)-1H-indazole-6-carboxamido)acetamido)propanoic acid]
> 1 ×10⁻⁶ cm/s | O=C(O)C[C@H](NC(=O)CNC(=O)c1cc(NC2=NCC(F)CN2)c2cn[nH]c2c1)c1cc(Cl)cc(C(F)(F)F)c1 (some centres unmarked) [1-(b)]
0.1 to 0.5 ×10⁻⁶ cm/s | O=C(O)C[C@H](NC(=O)CNC(=O)c1cc(NC2=NCC(F)CN2)c2cn[nH]c2c1)c1cc(OC(F)F)cc(-n2cccn2)c1 (stereo partly drawn) [29-(b), (3S)-3-(3-(difluoromethoxy)-5-(1H-pyrazol-1-yl)phenyl)-3-(2-(4-((5-fluoro-1,4,5,6-tetrahydropyrimidin-2-yl)amino)-1H-indazole-6-carboxamido)acetamido)propanoic acid]
> 1 ×10⁻⁶ cm/s | O=C(O)C[C@H](NC(=O)CNC(=O)c1cc(NC2=NCC(F)CN2)c2cn[nH]c2c1)c1cc(Br)cc(I)c1 (stereo partly drawn) [20-(b), (3S)-3-(3-bromo-5-iodophenyl)-3-(2-(4-((5-fluoro-1,4,5,6-tetrahydropyrimidin-2-yl)amino)-1H-indazole-6-carboxamido)acetamido)propanoic acid]
> 1 ×10⁻⁶ cm/s | O=C(O)C[C@H](NC(=O)CNC(=O)c1cc(NC2=NCC(F)CN2)c2cn[nH]c2c1)c1cc(Cl)ccc1F (stereo partly drawn) [22-(b), (3S)-3-(5-chloro-2-fluorophenyl)-3-(2-(4-((5-fluoro-1,4,5,6-tetrahydropyrimidin-2-yl)amino)-1H-indazole-6-carboxamido)acetamido)propanoic acid]
0.1 to 0.5 ×10⁻⁶ cm/s | O=C(O)C[C@H](NC(=O)CNC(=O)c1cc(NC2=NCC(F)CN2)cc2[nH]ncc12)c1ccc(F)c(C(F)(F)F)c1 (stereo partly drawn) [55-(b), (3S)-3-(2-(6-((5-fluoro-1,4,5,6-tetrahydropyrimidin-2-yl)amino)-1H-indazole-4-carboxamido)acetamido)-3-(4-fluoro-3-(trifluoromethyl)phenyl)propanoic acid]
> 1 ×10⁻⁶ cm/s | O=C(O)C[C@H](NC(=O)CNC(=O)c1cc(NC2=NCC(F)CN2)c2cn[nH]c2c1)c1cccc(C(F)F)c1 (stereo partly drawn) [38-(b), (3S)-3-(3-(difluoromethyl)phenyl)-3-(2-(4-((5-fluoro-1,4,5,6-tetrahydropyrimidin-2-yl)amino)-1H-indazole-6-carboxamido)acetamido)propanoic acid]
0.5 to 1 ×10⁻⁶ cm/s | Cc1cc(C)n(-c2cccc([C@H](CC(=O)O)NC(=O)CNC(=O)c3cc(NC4=NCC(F)CN4)c4cn[nH]c4c3)c2)n1 (stereo partly drawn) [44-(b), (3S)-3-(3-(3,5-dimethyl-1H-pyrazol-1-yl)phenyl)-3-(2-(4-((5-fluoro-1,4,5,6-tetrahydropyrimidin-2-yl)amino)-1H-indazole-6-carboxamido)acetamido)propanoic acid]
> 1 ×10⁻⁶ cm/s | O=C(O)C[C@H](NC(=O)CNC(=O)c1cc(NC2=NCC(F)CN2)c2cn[nH]c2c1)c1cc(Br)cc(Br)c1 (stereo partly drawn) [19-(b), (3S)-3-(3,5-dibromophenyl)-3-(2-(4-((5-fluoro-1,4,5,6-tetrahydropyrimidin-2-yl)amino)-1H-indazole-6-carboxamido)acetamido)propanoic acid]
0.5 to 1 ×10⁻⁶ cm/s | O=C(O)C[C@H](NC(=O)CNC(=O)c1cc(NC2=NCC(F)CN2)c2cn[nH]c2c1)c1cc(Br)cc(C(F)(F)F)c1 (stereo partly drawn) [2-(b), (3S)-3-(3-bromo-5-(trifluoromethyl)phenyl)-3-(2-(4-((5-fluoro-1,4,5,6-tetrahydropyrimidin-2-yl)amino)-1H-indazole-6-carboxamido)acetamido)propanoic acid]
> 1 ×10⁻⁶ cm/s | O=C(O)C[C@H](NC(=O)CNC(=O)c1cc(NC2=NCC(F)CN2)c2cn[nH]c2c1)c1cc(Cl)cc(I)c1 (stereo partly drawn) [21-(b), (3S)-3-(3-chloro-5-iodophenyl)-3-(2-(4-((5-fluoro-1,4,5,6-tetrahydropyrimidin-2-yl)amino)-1H-indazole-6-carboxamido)acetamido)propanoic acid]
0.1 to 0.5 ×10⁻⁶ cm/s | O=C(O)C[C@H](NC(=O)CNC(=O)c1cc(NC2=NCC(F)CN2)cc2[nH]ncc12)c1cc(I)cc(C(F)(F)F)c1 (stereo partly drawn) [54-(b), (3S)-3-(2-(6-((5-fluoro-1,4,5,6-tetrahydropyrimidin-2-yl)amino)-1H-indazole-4-carboxamido)acetamido)-3-(3-iodo-5-(trifluoromethyl)phenyl)propanoic acid]
> 1 ×10⁻⁶ cm/s | O=C(O)C[C@H](NC(=O)CNC(=O)c1cc(NC2=NCC(F)CN2)c2cn[nH]c2c1)c1ccc(F)c(C(F)(F)F)c1 (stereo partly drawn) [13-(b), (3S)-3-(2-(4-((5-fluoro-1,4,5,6-tetrahydropyrimidin-2-yl)amino)-1H-indazole-6-carboxamido)acetamido)-3-(4-fluoro-3-(trifluoromethyl)phenyl)propanoic acid]
> 1 ×10⁻⁶ cm/s | O=C(O)C[C@H](NC(=O)CNC(=O)c1cc(NC2=NCC(F)CN2)c2cn[nH]c2c1)c1cc(C(F)(F)F)ccc1F (stereo partly drawn) [11-(b), (3S)-3-(2-(4-((5-fluoro-1,4,5,6-tetrahydropyrimidin-2-yl)amino)-1H-indazole-6-carboxamido)acetamido)-3-(2-fluoro-5-(trifluoromethyl)phenyl)propanoic acid]
> 1 ×10⁻⁶ cm/s | O=C(O)C[C@H](NC(=O)CNC(=O)c1cc(NC2=NCC(F)CN2)c2cn[nH]c2c1)c1cccc(C(F)(F)F)c1F (stereo partly drawn) [9-(b), (3S)-3-(2-(4-((5-fluoro-1,4,5,6-tetrahydropyrimidin-2-yl)amino)-1H-indazole-6-carboxamido)acetamido)-3-(2-fluoro-3-(trifluoromethyl)phenyl)propanoic acid]
0.5 to 1 ×10⁻⁶ cm/s | O=C(O)C[C@H](NC(=O)CNC(=O)c1cc(NC2=NCC(F)CN2)c2cn[nH]c2c1)c1cc(C(F)(F)F)cc(C(F)(F)F)c1 (stereo partly drawn) [7-(b), (3S)-3-(3,5-bis(trifluoromethyl)phenyl)-3-(2-(4-((5-fluoro-1,4,5,6-tetrahydropyrimidin-2-yl)amino)-1H-indazole-6-carboxamido)acetamido)propanoic acid]
> 1 ×10⁻⁶ cm/s | O=C(O)C[C@H](NC(=O)CNC(=O)c1cc(NC2=NCC(F)CN2)c2cn[nH]c2c1)c1cccc(Cl)c1 (stereo partly drawn) [41-(b), (3S)-3-(3-chlorophenyl)-3-(2-(4-((5-fluoro-1,4,5,6-tetrahydropyrimidin-2-yl)amino)-1H-indazole-6-carboxamido)acetamido)propanoic acid]
0.5 to 1 ×10⁻⁶ cm/s | O=C(O)C[C@H](NC(=O)CNC(=O)c1cc(NC2=NCC(F)CN2)c2cn[nH]c2c1)c1cc(OC(F)F)cc(C(F)(F)F)c1 (stereo partly drawn) [24-(b), (3S)-3-(3-(difluoromethoxy)-5-(trifluoromethyl)phenyl)-3-(2-(4-((5-fluoro-1,4,5,6-tetrahydropyrimidin-2-yl)amino)-1H-indazole-6-carboxamido)acetamido)propanoic acid]
0.5 to 1 ×10⁻⁶ cm/s | O=C(O)C[C@H](NC(=O)CNC(=O)c1cc(NC2=NCC(F)CN2)c2c(Cl)n[nH]c2c1)c1cc(Cl)cc(C(F)(F)F)c1 (stereo partly drawn) [49-(b), (3S)-3-(2-(3-chloro-4-((5-fluoro-1,4,5,6-tetrahydropyrimidin-2-yl)amino)-1H-indazole-6-carboxamido)acetamido)-3-(3-chloro-5-(trifluoromethyl)phenyl)propanoic acid]
